The source of these data is US9657002B2, “Oxindole derivatives carrying an oxetane substituent and use thereof for treating vassopressin-related diseases” (AbbVie Deutschland GmbH & Co. KG, priority 2013, dated 2017).

The target in test [1] is T1, human vasopressin V1b receptor (Homo sapiens, UniProt P47901).
T1 sequence (P47901 1-424): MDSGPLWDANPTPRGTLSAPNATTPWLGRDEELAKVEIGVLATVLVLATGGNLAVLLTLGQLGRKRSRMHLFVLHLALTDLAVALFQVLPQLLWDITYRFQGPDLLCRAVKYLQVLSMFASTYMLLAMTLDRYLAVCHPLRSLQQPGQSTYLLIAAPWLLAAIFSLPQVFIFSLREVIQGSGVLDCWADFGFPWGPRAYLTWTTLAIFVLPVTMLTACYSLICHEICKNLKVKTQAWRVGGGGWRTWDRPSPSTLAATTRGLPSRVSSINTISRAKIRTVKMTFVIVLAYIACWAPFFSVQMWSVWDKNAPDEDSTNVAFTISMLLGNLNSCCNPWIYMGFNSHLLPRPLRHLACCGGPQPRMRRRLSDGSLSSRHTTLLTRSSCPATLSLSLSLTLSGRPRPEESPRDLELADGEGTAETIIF
Description: biochemical.

Test [2] concerns the target human vasopressin V1a receptor (Homo sapiens, UniProt P37288). The test can be described thus: Vasopressin V1a receptor binding assay. To be noted: selectivity quotient, human V1a vs human V1b.

human vasopressin V1a receptor, sequence (P37288 whole entry): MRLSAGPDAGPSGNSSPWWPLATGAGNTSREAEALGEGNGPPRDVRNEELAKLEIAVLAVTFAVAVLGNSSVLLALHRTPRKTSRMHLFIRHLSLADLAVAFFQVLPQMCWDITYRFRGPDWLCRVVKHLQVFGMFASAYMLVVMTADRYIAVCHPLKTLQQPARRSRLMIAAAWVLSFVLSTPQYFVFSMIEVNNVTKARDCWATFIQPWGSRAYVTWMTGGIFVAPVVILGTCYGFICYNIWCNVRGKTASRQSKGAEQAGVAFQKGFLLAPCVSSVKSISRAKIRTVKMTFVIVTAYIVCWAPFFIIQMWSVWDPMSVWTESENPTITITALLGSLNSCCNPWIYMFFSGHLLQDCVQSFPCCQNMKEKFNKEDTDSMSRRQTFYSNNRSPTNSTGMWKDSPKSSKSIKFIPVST

By Ki is commonly meant a dissociation constant, usually derived from enzyme kinetics or from competition with a known ligand. In turn, `COc1ccc(S(=O)(=O)N2C(=O)[C@@](NC(=O)N3CCN(C4CCN(C5COC5)CC4)CC3)(c3cccnc3OC)c3cc(C#N)ccc32)cc1` [Example 34, N-[(3S)-5-cyano-1-(4-methoxyphenyl)sulfonyl-3-(2-methoxy-3-pyridyl)-2-oxo-indolin-3-yl]-4-[1-(oxetan-3-yl)-4-piperidyl]piperazine-1-carboxamide] returned an inhibitory constant (Ki) in test [1] of 10 to 100 nM. Also, in test [2], the “Ki(h-V1a)/Ki(h-V1b)” value is “++ (25-75)”.

For `CCOc1ncccc1[C@]1(NC(=O)N2CCN(C3CCN(C4COC4)CC3)CC2)C(=O)N(S(=O)(=O)c2cc(F)c(OC)cc2OC)c2ccc(C#N)cc21` [Example 8, (S)—N-(5-cyano-3-(2-ethoxypyridin-3-yl)-1-((5-fluoro-2,4-dimethoxyphenyl)sulfonyl)-2-oxoindolin-3-yl)-4-(1-(oxetan-3-yl)piperidin-4-yl)piperazine-1-carboxamide], in test [2], the “Ki(h-V1a)/Ki(h-V1b)” value was “+++ (>75)”.

Consider `CCOc1ncccc1[C@]1(NC(=O)N2CCN(C3CCN(C4COC4)CC3)CC2)C(=O)N(S(=O)(=O)c2ccc(OC)cc2OC)c2cc(F)c(F)cc21` [Example 9, (S)—N-(1-((2,4-dimethoxyphenyl)sulfonyl)-3-(2-ethoxypyridin-3-yl)-5,6-difluoro-2-oxoindolin-3-yl)-4-(1-(oxetan-3-yl)piperidin-4-yl)piperazine-1-carboxamide], for which, in test [2], the “Ki(h-V1a)/Ki(h-V1b)” value is reported as “+++ (>75)”.

On to `COc1cc(C)ccc1S(=O)(=O)N1C(=O)[C@@](NC(=O)N2CCN(C3CCN(C4COC4)CC3)CC2)(c2cccnc2OC)c2cc(C#N)ccc21` [Example 46, N-[(3S)-5-cyano-1-(2-methoxy-4-methyl-phenyl)sulfonyl-3-(2-methoxy-3-pyridyl)-2-oxo-indolin-3-yl]-4-[1-(oxetan-3-yl)-4-piperidyl]piperazine-1-carboxamide], for which, in test [1], the Ki was in the range of 10 to 100 nM. In addition, the “Ki(h-V1a)/Ki(h-V1b)” value in test [2] is on record as “+++ (>75)”.

In test [1], `CCOc1ncccc1[C@]1(NC(=O)N2CCN(C3CCN(C4COC4)CC3)CC2)C(=O)N(S(=O)(=O)c2ccc(OC)cn2)c2ccc(C#N)cc21` [Example 25, N-[(3S)-5-cyano-3-(2-ethoxy-3-pyridyl)-1-[(5-methoxy-2-pyridyl)sulfonyl]-2-oxo-indolin-3-yl]-4-[1-(oxetan-3-yl)-4-piperidyl]piperazine-1-carboxamide] registered an inhibition constant (Ki) of 1 to 10 nM. In addition, the “Ki(h-V1a)/Ki(h-V1b)” value in test [2] is given as “+++ (>75)”.

Regarding `CCOc1ncccc1[C@]1(NC(=O)N2CCC(N3CCN(C4COC4)CC3)CC2)C(=O)N(S(=O)(=O)c2ccc(OC)cc2)c2ccc(C#N)cc21` [Example 13, (S)—N-(5-cyano-3-(2-ethoxypyridin-3-yl)-1-((4-methoxyphenyl)sulfonyl)-2-oxoindolin-3-yl)-4-(4-(oxetan-3-yl)piperazin-1-yl)piperidine-1-carboxamide], in test [2], the “Ki(h-V1a)/Ki(h-V1b)” value was “+++ (>75)”.

In test [1], `COc1cc(F)ccc1S(=O)(=O)N1C(=O)[C@@](NC(=O)N2CCC(C3CCN(C4COC4)CC3)CC2)(c2cccnc2OC)c2cc(C#N)ccc21` [Example 37, N-[(3S)-5-cyano-1-(4-fluoro-2-methoxy-phenyl)sulfonyl-3-(2-methoxy-3-pyridyl)-2-oxo-indolin-3-yl]-4-[1-(oxetan-3-yl)-4-piperidyl]piperidine-1-carboxamide] had a Ki of under 1 nM. Moreover, in test [2], the “Ki(h-V1a)/Ki(h-V1b)” value is on record as “+++ (>75)”.

`CCOc1ccc(OC)cc1[C@]1(NC(=O)N2CCN(C3CCN(C4COC4)CC3)CC2)C(=O)N(S(=O)(=O)c2ccc(OC)cc2OC)c2ccc(C#N)cc21` [Example 33, N-[(3S)-5-cyano-1-(2,4-dimethoxyphenyl)sulfonyl-3-(2-ethoxy-5-methoxy-phenyl)-2-oxo-indolin-3-yl]-4-[1-(oxetan-3-yl)-4-piperidyl]piperazine-1-carboxamide] registered an inhibition constant Ki in test [1] of 1 to 10 nM. Further, the “Ki(h-V1a)/Ki(h-V1b)” value in test [2] is listed as “+++ (>75)”.

As for `CCOc1ncccc1[C@]1(NC(=O)N2CCN(C3CCN(C4COC4)CC3)CC2)C(=O)N(S(=O)(=O)c2ccc(OC)cc2OC)c2ccc(C#N)cc21` [Example 1, (S)—N-(5-cyano-1-((2,4-dimethoxyphenyl)sulfonyl)-3-(2-ethoxypyridin-3-yl)-2-oxoindolin-3-yl)-4-(1-(oxetan-3-yl)piperidin-4-yl)piperazine-1-carboxamide], the “Ki(h-V1a)/Ki(h-V1b)” value in test [2] is reported as “+++ (>75)”.

Take `CCOc1ncccc1[C@]1(NC(=O)N2CCC(N3C[C@@H]4C[C@H]3CN4C3COC3)CC2)C(=O)N(S(=O)(=O)c2ccc(OC)cc2OC)c2ccc(C#N)cc21` [Example 17, N—((S)-5-cyano-1-((2,4-dimethoxyphenyl)sulfonyl)-3-(2-ethoxypyridin-3-yl)-2-oxoindolin-3-yl)-4-((1S,4S)-5-(oxetan-3-yl)-2,5-diazabicyclo[2.2.1]heptan-2-yl)piperidine-1-carboxamide]: in test [2], the “Ki(h-V1a)/Ki(h-V1b)” value is given as “++ (25-75)”.

For the compound `COc1ccc(S(=O)(=O)N2C(=O)C(NC(=O)N3CCN(C4CCN(C5COC5)CC4)CC3)(c3cccnc3OC)c3cc(C#N)ccc32)c(OC)c1` (stereo not drawn) [Example 15, N-(5-cyano-1-((2,4-dimethoxyphenyl)sulfonyl)-3-(2-methoxypyridin-3-yl)-2-oxoindolin-3-yl)-4-(1-(oxetan-3-yl)piperidin-4-yl)piperazine-1-carboxamide], the “Ki(h-V1a)/Ki(h-V1b)” value in test [2] is “+++ (>75)”.

Regarding `CCOc1ncccc1[C@]1(NC(=O)N2CCN(C3CCN(C4COC4)CC3)CC2)C(=O)N(S(=O)(=O)c2ccc(OC)c(C)c2C)c2ccc(C#N)cc21` [Example 18, (S)—N-(5-cyano-3-(2-ethoxypyridin-3-yl)-1-((4-methoxy-2,3-dimethylphenyl)sulfonyl)-2-oxoindolin-3-yl)-4-(1-(oxetan-3-yl)piperidin-4-yl)piperazine-1-carboxamide], in test [2], the “Ki(h-V1a)/Ki(h-V1b)” value was “+ (10-<25)”.

On to `CCOc1ncccc1[C@]1(NC(=O)N2CCN(C3CCN(C4COC4)CC3)CC2)C(=O)N(S(=O)(=O)c2ccc(OC)cc2F)c2ccc(C#N)cc21` [Example 6, (S)—N-(5-cyano-3-(2-ethoxypyridin-3-yl)-1-((2-fluoro-4-methoxyphenyl)sulfonyl)-2-oxoindolin-3-yl)-4-(1-(oxetan-3-yl)piperidin-4-yl)piperazine-1-carboxamide], for which, in test [2], the “Ki(h-V1a)/Ki(h-V1b)” value is “+++ (>75)”.

Turning to `CCOc1ncccc1[C@]1(NC(=O)N2CCN(C3CCN(C4COC4)CC3)CC2)C(=O)N(S(=O)(=O)c2ccc(OC)cc2OC)c2ccc(Cl)cc21` [Example 10, (S)—N-(5-chloro-1-((2,4-dimethoxyphenyl)sulfonyl)-3-(2-ethoxypyridin-3-yl)-2-oxoindolin-3-yl)-4-(1-(oxetan-3-yl)piperidin-4-yl)piperazine-1-carboxamide], in test [2], the “Ki(h-V1a)/Ki(h-V1b)” value is reported as “+++ (>75)”.

With `COc1ccc(S(=O)(=O)N2C(=O)[C@@](NC(=O)N3CCC(C4CCN(C5COC5)CC4)CC3)(c3cccnc3OC)c3cc(C#N)ccc32)nc1` [Example 39, N-[(3S)-5-cyano-3-(2-methoxy-3-pyridyl)-1-[(5-methoxy-2-pyridyl)sulfonyl]-2-oxo-indolin-3-yl]-4-[1-(oxetan-3-yl)-4-piperidyl]piperidine-1-carboxamide], the inhibition constant Ki in test [1] was under 1 nM.

Take `CCOc1ncccc1[C@]1(NC(=O)N2CCC(N3CCN(C4COC4)CC3)CC2)C(=O)N(S(=O)(=O)c2ccc(C#N)cc2)c2ccc(C#N)cc21` [Example 12, (S)—N-(5-cyano-1-((4-cyanophenyl)sulfonyl)-3-(2-ethoxypyridin-3-yl)-2-oxoindolin-3-yl)-4-(4-(oxetan-3-yl)piperazin-1-yl)piperidine-1-carboxamide]: in test [2], the “Ki(h-V1a)/Ki(h-V1b)” value is reported as “++ (25-75)”.
